In patent publication US20040057926A1, “Modulation of the immune response through the manipulation of arginine levels” (LSU Medical Center, priority 2002, published 2004):

Tests used:
ASE = ASE activity assay (L-ornithine production) in PM lysates; type: biochemical, mice; settings: NOHA 100 μM, Nor-NOHA 50 μM
Procedure: Cell lysates from PM stimulated with IL-4+IL-13 or IFN-γ were tested for ASE activity by measuring the production of L-ornithine. In brief, cell lysates from PM stimulated with IL-4+IL-13 or IFN-γ in the presence or absence of NOHA or Nor-NOHA were added to 50 μl of Tris-HCl (50 mM; pH 7.5) containing 10 mM MnCl2. This mixture was heated at 55-60° C. for 10 min to activate ASE. The hydrolysis reaction from L-Arg to L-ornithine was identified by a colorimetric assay after the addition of ninhydrin solution and incubation at 37° C. for 1 h.

Jurkat cells = assay: CD3ζ chain expression in Jurkat cells with H. pylori sonicate or proteins; type: cell-based; settings: NOHA 10 μg/ml; difference not statistically significant
Procedure: Jurkat cells were cultured for 24 h in medium with the H. pylori sonicate at concentrations ranging from 1 μg/ml to 50 μg/ml. CagA (2 μg/ml) (Austral Biologicals; San Ramon, Calif.), VacA (4 μg/ml) (Austral), H. pylori urease A (2 μg/ml) (Austral), H. pylori urease B (2 μg/ml) (Austral) and E. coli LPS (500 ng/ml) (Sigma-Aldrich; St Louis, Mo.) were also used. Jurkat and T-cells were counted and stained with FITC-conjugated anti-human CD3 (Beckman-Coulter; Miami, Fla.) for 20 min in the dark. After washing with PBS the cells were stained for 8 min with phycoerythrin (PE)-conjugated anti-human CD3ζ (Beckman-Coulter; Miami, Fla.) in PBS containing 50 μg/ml of digitonin. The cells were washed twice in PBS and analyzed in an EPICS XL Coulter Flow Cytometer. The results compare the percentage of cells expressing CD3ζ as well as the mean fluorescence intensity.
[…] After addition of the sonicate plus NOHA or sonicate plus L-arginine mixture to the Jurkat cells, 1.0 μCi of ^3H-thymidine (NEN) was added per well, the cells were incubated at 37° C. for 18 h, harvested onto filters and counted in a β-counter (Packard).

T lymphocytes = assay: Co-culture in transwells of stimulated PM and stimulated normal T lymphocytes, CD3ζ expression; type: cell-based, human
Procedure: T-cells were isolated from mononuclear cells of healthy donors by T-cell enrichment columns (R&D Systems, Minneapolis, Minn.) according to manufacturer specifications. T-cell purity (CD3+) ranged between 89-95%. The cycle of internalization and re-expression of the TCR-CD3 complex was induced by T-cell stimulation with 1 μg/ml of anti-CD3, 100 ng/ml of anti-CD28 (Becton Dickinson) and 10 μg/ml of goat anti-mouse IgG (KPL, Gaithersburg, Md.). Cells were stimulated in the absence of L-Arg and added to the co-cultures 24 h after stimulation.
PM were cultured in 6 well plates in RPMI containing 150 μM L-Arg and stimulated with murine rIL-4 (50 U/ml) and murine rIL-13 (50 ng/ml), or murine rIFN-γ (100 U/ml) for 24 hours. Then 1×10^6 normal T-cells stimulated with anti-CD3 plus anti-CD28 or 1×10^6 Jurkat cells, were cultured in the top chamber of a transwell system having 0.4 μm pores (Falcon, Franklin lakes, N.J.). CD3ζ expression was measured in Jurkat cells or T lymphocytes at different time points. PM were detached using trypsin/EDTA and the expression of protein and RNA for CAT-2B, ASE I, ASE II and iNOS was tested by western blot and northern blot respectively. Cytoplasmic extracts from PM were used to test ASE activity. Supernatants from stimulated PM were used to measure NO production using the Griess reagent method (Molecular Probes, Eugene, Oreg.). In addition, the extra-cellular concentration of L-Arg was tested in supernatants by HPLC (Dr. Gu Yao Wu laboratory, University of Texas) as described previously. O'Quinn, P. R., D. A. Knabe, and G. Wu. 2002. Arginine catabolism in lactating porcine mammary tissue. J Anim Sci. 80:467-474.
Flow cytometry analysis was performed as previously described. Taheri, F., J. B. Ochoa, Z. Faghiri, K. Culotta, H. J. Park, M. S. Lan, A. H. Zea, and A. C. Ochoa. 2001. […] Fluorescence acquisition and analysis were done using a Coulter-EPICS XL flow cytometer (Beckman-Coulter) with a 488 nm argon laser. The data were expressed as mean channel fluorescence intensity (MFI).

purified T-cells = assay: CD3ζ expression in stimulated purified T-cell cultures with H. pylori sonicate; type: cell-based, human; settings: sonicate 20 μg/ml, L-arginine 400 μM
Procedure: After isolating peripheral blood mononuclear cells by Ficoll-Paque Plus (Amersham Pharmacia Biotech; Piscataway, N.J.), T-cells were purified by negative selection by using an affinity column (R & D Systems; Minneapolis, Minn.). The purity was always >90% T-cells as measured by the expression of CD3ε. H. pylori extracts or live H. pylori have no effect on resting T-cells, therefore T-cells were stimulated by cross linking anti-CD3 plus anti-CD28 as follows: 24 well plates were coated with 0.3 ml of goat-anti mouse (GAM) (Kirkegaard & Perry Laboratories; Gaithersburg, Md.) at 10 μg/ml in HBSS for 1 h. After washing twice with Hank's balanced salt solution (HBSS), 0.5×10^6 of purified T-cells were added per well in 1 ml of RPMI without L-arginine containing 1 μg/ml of anti-human CD3 (Ortho Diagnostics, Raritan, N.J.) and 100 ng/ml of anti-human CD28 (Becton-Dickinson) and cultured for 24 h. After this time L-arginine was added to the wells to give a final concentration of 0.4 mM. H. pylori sonicate (20 μg/ml) from either the wild type strain ATCC 43504 or its rocF (−) isogenic mutant was also added to the wells. After 24 h under these conditions, the cells were recovered and stained for CD3ζ. Six different donors were tested. […]

SMILES	intracellular ASE activity (ASE)	CD3ζ chain expression in Jurkat cells treated with H. pylori sonicate (Jurkat cells)	CD3ζ in normal stimulated T lymphocytes co-cultured with IL-4+IL-13 activated PM (T lymphocytes)	CD3ζ expression in stimulated T-cells (purified T-cells)
NC(=NCCC[C@H](N)C(=O)O)NO [NOHA, NG-hydroxy-L-arginine]	blocked intracellular ASE activity	partially inhibited the drop in CD3ζ chain expression	prevented the loss of CD3ζ	–
N=C(N)NCCC[C@H](N)C(=O)O [L-arginine]	–	–	–	recovered CD3ζ expression
